Read-outs that look alike come from different tables or passages of the source. Peptide text beside a SMILES is read from it.
Tests used:
human GGTase = human GGTase (Homo sapiens, UniProt P53609); experiment: Human GGTase inhibition (Hu GG); type: biochemical
Description: As described below, a variety of different compounds were synthesized and tested for inhibitory activity against human and Candida GGTase. Exemplary synthesis schemes for generating prenyltransferase inhibitors useful in the methods and compositions of the present invention are shown in FIGS. 1-56. Tables 1-5 provide Structure-Activity relationship (SAR) data for several different classes of prenyltransferase inhibitors.

C. albicans GGPTase = biological target: T1, C. albicans GGPTase (Candida albicans, UniProt Q8J224+Q9Y764); experiment: biochemical
T1 sequence (Q9Y764 1-398): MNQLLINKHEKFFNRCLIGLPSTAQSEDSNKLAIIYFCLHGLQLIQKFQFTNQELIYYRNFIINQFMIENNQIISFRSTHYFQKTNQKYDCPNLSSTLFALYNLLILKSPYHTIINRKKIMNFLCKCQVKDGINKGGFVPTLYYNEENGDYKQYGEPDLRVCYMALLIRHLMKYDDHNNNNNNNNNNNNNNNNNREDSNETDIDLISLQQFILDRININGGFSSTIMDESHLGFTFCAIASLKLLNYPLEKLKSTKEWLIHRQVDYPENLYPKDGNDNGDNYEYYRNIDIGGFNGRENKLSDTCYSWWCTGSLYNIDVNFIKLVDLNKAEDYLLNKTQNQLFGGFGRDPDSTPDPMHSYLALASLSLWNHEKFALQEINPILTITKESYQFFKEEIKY
T1 sequence (Q8J224 1-306): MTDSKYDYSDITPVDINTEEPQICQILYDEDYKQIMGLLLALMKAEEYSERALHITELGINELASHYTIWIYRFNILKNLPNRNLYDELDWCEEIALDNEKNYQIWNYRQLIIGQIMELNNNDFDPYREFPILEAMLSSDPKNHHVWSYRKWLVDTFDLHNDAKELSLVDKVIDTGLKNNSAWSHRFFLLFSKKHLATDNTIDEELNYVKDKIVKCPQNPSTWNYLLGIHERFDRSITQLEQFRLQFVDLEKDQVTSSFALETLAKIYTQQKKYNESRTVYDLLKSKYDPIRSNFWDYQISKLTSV
Method: Plate test compounds (10 μL per well) at predetermined concentration in 50% DMSO. For background control (blank) and reaction control (negative), add 10 μL of 200 μM GGPP and 10 μL 50% DMSO, respectively. Prepare assay buffer: 50 mM Tris, pH7.5, 20 mM KCL, 5 mM MgCl2, 5 μM ZnCl2, 0.5 mM Zw(3-14), 2 mM DTT and 0.1 mg/mL BSA.
Add 20 μL of C. albicans GGPTase and ^3H-GGPP in assay buffer to test compound. Preincubate enzyme and ^3H-GGPP with test compound for 15 minutes at room temperature. Add 20 μL C. albicans Rho in assay buffer. Incubate for 30 minutes at room temperature. Final assay conditions are 2 nM C. albicans GGPTase, 250 nM ^3H-GGPP and 250 nM C. albicans Rho.
Add 100 μL 15 mM GGPP, 50 mM Tris, pH7.0 and 2% BSA to quench reaction. Transfer reaction to Nickel chelate FlashPlate. Allow his-tagged C. albcians Rho to capture onto plate. Rinse plate 1× with 200 μL 20 mM Tris, pH7.0. Read in TOPCOUNT.

Hu FT = Hu FT (Homo sapiens, UniProt P49356); experiment: Human FT inhibition (Hu FT); type: biochemical; conditions: Table 3 Piperidine Analogs
[1] = Table 3 Piperidine Analogs, read-out: IC50 (nM) Hu GG
[2] = Table 3 Piperidine Analogs, read-out: IC50 (nM) Ca GG
[3] = Table 1, read-out: IC50 (nM) Hu GG
[4] = Table 1 Peptide Analogs, read-out: IC50 (nM) Hu GG
[5] = read-out: IC50 (nM) Ca GG, Table 1
[6] = Table 1, read-out: IC50 (nM) Ca GG
[7] = Table 1 Peptide Analogs, read-out: IC50 (nM) Ca GG
[8] = Table 5, read-out: IC50 (nM) Human
[9] = Table 5, read-out: IC50 (nM) Candida

Structure (SMILES)	IC50 (human GGTase; [1]) [nM]	IC50 (C. albicans GGPTase; [2]) [nM]	IC50 (human GGTase; [3]) [nM]	IC50 (human GGTase; [4]) [nM]	IC50 (C. albicans GGPTase) [nM]	also measured
N[C@@H](CS)C(=O)N1CCC(C(=O)N[C@@H]2C[C@H]2c2ccccc2)(c2ccccc2)CC1 (relative stereo) [Compound 53v]	> 1000	< 10				IC50 (Hu FT): > 1000 nM
CC(C)C[C@H](NC(=O)[C@H](Cc1cccc2ccccc12)NC(=O)[C@H](CCO)NC(=O)[C@@H](N)CS)C(=O)O [Compound 5a] (HELM PEPTIDE1{C.[O=C([C@H](CCO)N[*:1])[*:2]].[O=C([C@H](Cc1cccc2ccccc12)N[*:1])[*:2]].L}$$$$V2.0)			< 500	< 500	< 500	
CC(C)C[C@H](NC(=O)[C@H](Cc1cccc2ccccc12)NC(=O)[C@H](CN)NC(=O)[C@@H](N)CS)C(=O)O [Compound 5b] (HELM PEPTIDE1{C.[NC[C@H](N[*:1])C(=O)[*:2]].[O=C([C@H](Cc1cccc2ccccc12)N[*:1])[*:2]].L}$$$$V2.0)			< 500	< 500	< 10	IC50 (C. albicans GGPTase; [5]): < 10 nM
CC(C)C[C@H](NC(=O)[C@H](Cc1cccc2ccccc12)NC(=O)[C@@H](N)CNC(=O)[C@@H](N)CS)C(=O)O [Compound 5c] (HELM PEPTIDE1{[N[C@@H](CN[*:3])C(=O)[*:2]].[O=C([C@H](Cc1cccc2ccccc12)N[*:1])[*:2]].L}|PEPTIDE2{C}$PEPTIDE1,PEPTIDE2,1:R3-1:R2$$$V2.0)			> 1000	> 1000		IC50 (C. albicans GGPTase; [6]): < 1000 nM; IC50 (C. albicans GGPTase; [7]): < 1000 nM
CC(C)C[C@H](NC(=O)[C@H](Cc1cccc2ccccc12)NC(=O)[C@H](CC(=O)O)NC(=O)[C@@H](N)CS)C(=O)O [Compound 5d] (HELM PEPTIDE1{C.D.[O=C([C@H](Cc1cccc2ccccc12)N[*:1])[*:2]].L}$$$$V2.0)			> 1000	> 1000	> 1000	IC50 (C. albicans GGPTase; [5]): > 1000 nM
CC(C)C[C@H](NC(=O)[C@H](Cc1cccc2ccccc12)NC(=O)CCNC(=O)[C@@H](N)CS)C(=O)O [Compound 5g] (HELM PEPTIDE1{C.[bAla].[O=C([C@H](Cc1cccc2ccccc12)N[*:1])[*:2]].L}$$$$V2.0)			< 500	< 500		IC50 (C. albicans GGPTase; [6]): < 1000 nM; IC50 (C. albicans GGPTase; [7]): < 1000 nM
CC(C)C[C@H](NC(=O)[C@H](Cc1cccc2ccccc12)NC(=O)C[C@@H](NC(=O)[C@@H](N)CS)C(N)=O)C(=O)O [Compound 5h] (HELM PEPTIDE1{[O=C([C@H](Cc1cccc2ccccc12)N[*:1])[*:2]].L}|PEPTIDE2{C.[dD].[am]}$PEPTIDE1,PEPTIDE2,1:R1-2:R3$$$V2.0)			< 500	< 500		IC50 (C. albicans GGPTase; [6]): < 1000 nM; IC50 (C. albicans GGPTase; [7]): < 1000 nM
CC(C)C[C@H](NC(=O)[C@H](Cc1cccc2ccccc12)NC(=O)CNC(=O)[C@@H](N)CS)C(=O)O [Compound 5i] (HELM PEPTIDE1{C.G.[O=C([C@H](Cc1cccc2ccccc12)N[*:1])[*:2]].L}$$$$V2.0)			< 500	< 500	< 500	
CC(C)C[C@H](NC(=O)[C@H](Cc1ccc2ccccc2c1)NC[C@@H](NC[C@@H](N)CS)C(C)C)C(=O)O [Compound 9]			< 100	< 100		IC50 (human GGTase; [8]): < 100 nM; IC50 (C. albicans GGPTase; [6]): < 1000 nM; IC50 (C. albicans GGPTase; [7]): < 1000 nM; IC50 (C. albicans GGPTase; [9]): < 1000 nM
CC(C)C[C@H](NC(=O)c1ccc(NC[C@@H](N)CS)cc1-c1ccccc1)C(=O)O [Compound 17]						IC50 (human GGTase; [8]): < 10 nM; IC50 (C. albicans GGPTase; [9]): < 10 nM
CC(C)C[C@@H](C(=O)O)N(C)C(=O)c1ccc(NC[C@@H](N)CS)cc1-c1ccccc1 [Compound 19]						IC50 (human GGTase; [8]): < 10 nM; IC50 (C. albicans GGPTase; [9]): < 10 nM
CC(C)CCNC(=O)C1(c2ccccc2)CCN(C(=O)[C@@H](N)CS)CC1 [Compound 53c]	< 100	< 100				
CCOC(=O)N1CCC(NC(=O)C2(c3ccccc3)CCN(C(=O)[C@@H](N)CS)CC2)CC1 [Compound 53l]	> 1000	> 1000				
N[C@@H](CS)C(=O)N1CCC(C(=O)NC2CCCCC2)(c2ccccc2)CC1 [Compound 53s]	> 1000	< 500				
N[C@@H](CS)C(=O)N1CCC(C(=O)NCC2CCCO2)(c2ccccc2)CC1 (some centres unmarked) [Compound 53t]	> 1000	< 100				
N[C@@H](CS)C(=O)N1CCC(C(=O)NCc2ccccc2)CC1 [Compound 59]					> 1000	IC50 (human GGTase): > 1000 nM
N[C@@H](CS)C(=O)N1CCC(C(=O)N(Cc2ccccc2)c2ccccc2)CC1 [Compound 60]					> 1000	IC50 (human GGTase): > 1000 nM
N[C@@H](CS)C(=O)N1CCC(C(=O)N(Cc2ccccc2)Cc2ccccc2)CC1 [Compound 61]					> 1000	IC50 (human GGTase): > 1000 nM
N[C@@H](CS)C(=O)N1CCC(C(=O)N(CCc2ccccc2)Cc2ccccc2)CC1 [Compound 62]					< 200	IC50 (human GGTase): > 1000 nM
CC1(C(=O)NCc2ccccc2)CCN(C(=O)[C@@H](N)CS)CC1 [Compound 63]					< 500	IC50 (human GGTase): > 1000 nM
N[C@@H](CS)C(=O)N1CCC(Cc2ccccc2)(C(=O)NCc2ccccc2)CC1 [Compound 64]					< 100	IC50 (human GGTase): > 1000 nM
CC(C)/C=C1\NC(=O)N(C2(c3ccccc3)CCN(C(=O)C(N)CS)CC2)C1=O (centres unmarked) [Compound 70]					< 50	IC50 (human GGTase): > 1000 nM
CC(C)C[C@@H](C(=O)O)N(C)C(=O)Cn1c(=O)n(C2CCN(C(=O)[C@@H](N)CS)CC2)c2ccccc21 [Compound 93]	> 1000	> 1000				
CC(C)C[C@H](NC(=O)C1(c2ccccc2)CCN(C(=O)[C@@H](N)CS)CC1)C(=O)N[C@@H](C)C(=O)N[C@@H](C)C(=O)O [Compound 99b] (HELM PEPTIDE1{C.[O=C(C1(c2ccccc2)CCN([*:1])CC1)[*:2]].L.A.A}$$$$V2.0)	> 500	< 200				

Second part, led by results:

IC50 (human GGTase; [1]) [nM]	IC50 (C. albicans GGPTase; [2]) [nM]	IC50 (human GGTase; [3]) [nM]	IC50 (human GGTase; [4]) [nM]	Structure (SMILES)	IC50 (C. albicans GGPTase) [nM]	also measured
< 100	< 100			CC(C)C[C@H](NC(=O)C1(c2ccccc2)CCN(C(=O)[C@@H](N)CS)CC1)C(=O)O [Compound 53a]		
> 1000	< 100			N[C@@H](CS)C(=O)N1CCC(C(=O)NCCCCc2ccccc2)(c2ccccc2)CC1 [Compound 53aa]		
< 1000	< 100			N[C@@H](CS)C(=O)N1CCC(C(=O)NCc2ccccc2-c2ccccc2)(c2ccccc2)CC1 [Compound 53b]		
> 1000	< 100			N[C@@H](CS)C(=O)N1CCC(C(=O)NCc2ccccc2)(c2ccccc2)CC1 [Compound 53bb]		
> 1000	< 500			N[C@@H](CS)C(=O)N1CCC(C(=O)NCCc2cccs2)(c2ccccc2)CC1 [Compound 53d]		
> 1000	> 1000			N[C@@H](CS)C(=O)N1CCC(C(=O)NCCc2ccc(S(N)(=O)=O)cc2)(c2ccccc2)CC1 [Compound 53m]		
< 500	< 100			N[C@@H](CS)C(=O)N1CCC(C(=O)NCC(c2ccccc2)c2ccccc2)(c2ccccc2)CC1 [Compound 53y]		
		> 1000	> 1000	NC[C@H](NC(=O)[C@@H](N)CS)C(=O)NCc1ccc2c(c1)OCO2 [Compound 89d]		IC50 (C. albicans GGPTase; [6]): > 1000 nM; IC50 (C. albicans GGPTase; [7]): > 1000 nM
		> 1000	> 1000	NC[C@H](NC(=O)[C@@H](N)CS)C(=O)NCC(=O)Nc1ccc2ccccc2c1 [Compound 89e] (HELM PEPTIDE1{C.[NC[C@H](N[*:1])C(=O)[*:2]].G.[c1ccc2cc(N[*:1])ccc2c1]}$$$$V2.0)		IC50 (C. albicans GGPTase; [6]): > 1000 nM; IC50 (C. albicans GGPTase; [7]): > 1000 nM
		> 1000	> 1000	NC[C@H](NC(=O)[C@@H](N)CS)C(=O)N1CCC(Cc2ccccc2)CC1 [Compound 89f]		IC50 (C. albicans GGPTase; [6]): < 1000 nM; IC50 (C. albicans GGPTase; [7]): < 1000 nM
		> 1000	> 1000	NC[C@H](NC(=O)[C@@H](N)CS)C(=O)N1CCN(C(c2ccc(F)cc2)c2ccc(F)cc2)CC1 [Compound 89g]		IC50 (C. albicans GGPTase; [6]): < 500 nM; IC50 (C. albicans GGPTase; [7]): < 500 nM

From patent US6423519B1, “Compositions and methods for inhibiting fungal growth” (GPC Biotech Inc., priority 1998, dated 2002)
